Source: US4696925A, “Cholecystokinin antagonist compounds” (Merck & Co., Inc., priority 1985, dated 1987)
pIC50: −log10 of the molar value.

Target: T1, Pancreatic CCK (Rattus norvegicus, UniProt P30551)
T1 construct: from tissue; host or cells: pancreas (rat, inferred from the cited method)
T1 sequence (P30551 1-444): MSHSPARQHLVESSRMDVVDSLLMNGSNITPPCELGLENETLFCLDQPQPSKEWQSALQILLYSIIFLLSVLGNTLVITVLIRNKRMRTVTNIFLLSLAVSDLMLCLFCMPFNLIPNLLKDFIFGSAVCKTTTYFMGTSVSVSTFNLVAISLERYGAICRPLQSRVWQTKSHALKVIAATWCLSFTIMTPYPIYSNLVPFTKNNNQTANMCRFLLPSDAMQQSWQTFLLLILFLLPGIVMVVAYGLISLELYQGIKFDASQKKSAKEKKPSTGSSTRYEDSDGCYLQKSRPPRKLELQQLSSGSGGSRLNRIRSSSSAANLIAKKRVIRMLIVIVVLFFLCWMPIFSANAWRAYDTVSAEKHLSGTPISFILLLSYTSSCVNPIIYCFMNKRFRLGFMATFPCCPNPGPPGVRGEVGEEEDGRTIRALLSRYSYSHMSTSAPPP
Assay: Pancreatic CCK inhibition (assay of European Patent Application No. 0,116,150)
Assay type: binding
Description: The following formula and tabulation further identify the above listed compounds. Pancreatic CCK inhibition data is also provided; the assay used is that disclosed in said European Patent Application No. 0,116,150.
The following table contains information Identifying other compounds of the present invention and pancrease CCK inhibition data (European Patent Application Assay).

[1] = pancreas CCK inhibition, European Patent Application assay, leucine analogs
[2] = pancreatic CCK inhibition, assay of EP 0,116,150

Row | Compound | pIC50 [1] | pIC50 [2]
1 | O=C1NC(CC2(O)c3ccccc3N3C(=O)C(c4ccccc4)NC32)c2nc3ccccc3c(=O)n2-c2ccccc21 (stereo not drawn) [Compound 500] | 4.70 | –
2 | CCCC1NC2N(C1=O)c1ccccc1C2(O)CC1NC(=O)c2ccccc2-n2c1nc1ccccc1c2=O (stereo not drawn) [Compound 539] | 4.92 | –
3 | C=CCC1NC2N(C1=O)c1ccccc1C2(O)CC1NC(=O)c2ccccc2-n2c1nc1ccccc1c2=O (stereo not drawn) [Compound 540] | 5.12 | –
4 | O=C1NC(Cc2c[nH]c3ncccc23)c2nc3ccccc3c(=O)n2-c2ccccc21 (stereo not drawn) [Compound 841] | – | 4.52
5 | CC(C)C[C@@H]1NC2N(C1=O)c1ccccc1C2(O)C[C@@H]1NC(=O)c2ccc(F)cc2-n2c1nc1ccccc1c2=O (stereo partly drawn) [Compound 845] | – | 5.84
6 | O=C1c2ccccc2-n2c(nc3ccccc3c2=O)C2CC3(O)c4cc(F)ccc4NC3N12 (stereo not drawn) [Compound 856] | – | 4.52
7 | O=C1c2cc(F)ccc2-n2c(nc3ccc(F)cc3c2=O)C2CC3(O)c4cc(F)ccc4NC3N12 (stereo not drawn) [Compound 857] | – | 5.60

Second part, led by results:

Row | pIC50 [1] | Compound | pIC50 [2]
8 | 6.22 | O=C1NC(CC2(O)c3ccccc3N3C(=O)C(C4CCCCC4)NC32)c2nc3ccccc3c(=O)n2-c2ccccc21 (stereo not drawn) [Compound 068] | –
9 | 6.00 | CC(CC1NC2N(C1=O)c1ccccc1C2(O)CC1NC(=O)c2ccccc2-n2c1nc1ccccc1c2=O)C(F)(F)F (stereo not drawn) [Compound 328] | –
10 | 5.48 | C=C(C)CC1NC2N(C1=O)c1ccccc1C2(O)CC1NC(=O)c2ccccc2-n2c1nc1ccccc1c2=O (stereo not drawn) [Compound 538] | –
11 | 5.23 | CCC(C)C1NC2N(C1=O)c1ccccc1C2(O)CC1NC(=O)c2ccccc2-n2c1nc1ccccc1c2=O (stereo not drawn) [Compound 654] | –
12 | 5.39 | CSCCC1NC2N(C1=O)c1ccccc1C2(O)CC1NC(=O)c2ccccc2-n2c1nc1ccccc1c2=O (stereo not drawn) [Compound 655] | –
13 | 5.60 | CCCCC1NC2N(C1=O)c1ccccc1C2(O)CC1NC(=O)c2ccccc2-n2c1nc1ccccc1c2=O (stereo not drawn) [Compound 656] | –
14 | 5.82 | CCSCCC1NC2N(C1=O)c1ccccc1C2(O)CC1NC(=O)c2ccccc2-n2c1nc1ccccc1c2=O (stereo not drawn) [Compound 721] | –
15 | 5.66 | O=C1NC(CC2(O)c3ccccc3N3C(=O)C(C4CCCC4)NC32)c2nc3ccccc3c(=O)n2-c2ccccc21 (stereo not drawn) [Compound 931] | –
